Legend:
Format in all cases: functional
Coptotermes formosanus [1] = assay: Termiticidal activity against Coptotermes formosanus (third-instar worker and soldier) assessed as mortality at 1% wt/wt at 26.6 degC, 100% RH measured after 11 days (Rvb= 1.3 +/- 2.5%)
Coptotermes formosanus [2] = assay: Termiticidal activity against Coptotermes formosanus (third-instar worker and soldier) assessed as mortality at 1% wt/wt at 26.6 degC, 100% RH measured after 4 days (Rvb= 0%)
Coptotermes formosanus [3] = assay: Termiticidal activity against Coptotermes formosanus (third-instar worker and soldier) assessed as mortality at 1% wt/wt at 26.6 degC, 100% RH measured after 1 day (Rvb= 0%)
Coptotermes formosanus [4] = assay: Termiticidal activity against Coptotermes formosanus (third-instar worker and soldier) assessed as mortality at 1% wt/wt at 26.6 degC, 100% RH measured after 18 days (Rvb= 1.3 +/- 2.5%)
Coptotermes formosanus [5] = assay: Termiticidal activity against Coptotermes formosanus (third-instar worker and soldier) assessed as mortality at 1% wt/wt at 26.6 degC, 100% RH measured after 15 days (Rvb= 1.3 +/- 2.5 to 5 +/- 4.1%)
Coptotermes formosanus [6] = assay: Termiticidal activity against Coptotermes formosanus (third-instar worker and soldier) assessed as mortality at 1% wt/wt at 26.6 degC, 100% RH measured after 8 days (Rvb= 1.3 +/- 2.5%)
Coptotermes formosanus [7] = assay: Termiticidal activity against Coptotermes formosanus (third-instar worker and soldier) assessed as mortality at 1% wt/wt at 26.6 degC, 100% RH measured after 21 days (Rvb= 1.3 +/- 2.5%)
Coptotermes formosanus [8] = assay: Termiticidal activity against Coptotermes formosanus (third-instar worker and soldier) assessed as mortality at 1% wt/wt at 26.6 degC, 100% RH measured after 7 days (Rvb= 3.8 +/- 4.8%)
Coptotermes formosanus [9] = assay: Termiticidal activity against Coptotermes formosanus (third-instar worker and soldier) assessed as mortality at 0.5% wt/wt at 26.6 degC, 100% RH measured after 5 days
Coptotermes formosanus [10] = assay: Termiticidal activity against Coptotermes formosanus (third-instar worker and soldier) assessed as mortality at 1% wt/wt at 26.6 degC, 100% RH measured after 17 days (Rvb= 5 +/- 4.1%)
Coptotermes formosanus [11] = assay: Termiticidal activity against Coptotermes formosanus (third-instar worker and soldier) assessed as mortality at 1% wt/wt at 26.6 degC, 100% RH measured after 9 days (Rvb= 3.8 +/- 4.8%)
Coptotermes formosanus [12] = assay: Termiticidal activity against Coptotermes formosanus (third-instar worker and soldier) assessed as mortality at 1% wt/wt at 26.6 degC, 100% RH measured after 3 days (Rvb= 0%)
Coptotermes formosanus [13] = assay: Termiticidal activity against Coptotermes formosanus (third-instar worker and soldier) assessed as mortality at 1% wt/wt at 26.6 degC, 100% RH measured after 21 days (Rvb= 1.3 +/- 2.5 to 5 +/- 4.1%)

Row | SMILES | mortality (Coptotermes formosanus [1]) [%] | mortality (Coptotermes formosanus [2]) [%] | mortality (Coptotermes formosanus [3]) [%] | mortality (Coptotermes formosanus [4]) [%] | mortality (Coptotermes formosanus [5]) [%] | mortality (Coptotermes formosanus [6]) [%] | mortality (Coptotermes formosanus [7]) [%] | mortality (Coptotermes formosanus [8]) [%] | mortality (Coptotermes formosanus [9]) [%] | mortality (Coptotermes formosanus [10]) [%] | mortality (Coptotermes formosanus [11]) [%] | mortality (Coptotermes formosanus [12]) [%] | mortality (Coptotermes formosanus [13]) [%]
1 | CC(C)NCCc1ccc2c(c1)C=CC(C)(C)O2.Cl | 5 | 3.8 | 3.75 | 8.8 | 7.5 | 3.8 | 15 |  |  |  |  |  | 
2 | CC(C)NCc1ccc2c(c1)C=CC(C)(C)O2.Cl | 72.5 | 20 | 8.8 | 88.8 | 80 | 55 | 88.8 |  |  |  |  |  | 
3 | COC(=O)c1ccc(OC)c2c1OC(C)(C)C=C2 |  |  | 0 |  | 96.3 |  |  | 30 | 100 | 100 | 61.3 | 2.5 | 100
4 | CC1(C)C=Cc2ccc(CO)cc2O1 | 100 | 100 | 26.3 | 100 | 100 | 100 | 100 |  |  |  |  |  | 
5 | CC1(C)C=Cc2cc(C(=O)O)ccc2O1 | 0 | 0 | 0 | 1.3 | 1.3 | 0 | 2.5 |  |  |  |  |  | 
6 | COC(=O)c1ccc2c(c1)OC(C)(C)C=C2 | 100 | 100 | 32.5 | 100 | 100 | 100 | 100 |  |  |  |  |  | 
7 | CC(=O)c1ccc2c(c1O)C=CC(C)(C)O2 |  |  | 0 |  | 100 |  |  | 66.3 | 100 | 100 | 98.8 | 1.3 | 100
8 | CC1(C)C=Cc2c(CO)cccc2O1 | 100 | 100 | 41.3 | 100 | 100 | 100 | 100 |  | 100 |  |  |  | 
9 | COC(=O)c1ccc2c(c1)C=CC(C)(C)O2 | 100 | 92.5 | 3.75 | 100 | 100 | 100 | 100 |  |  |  |  |  | 
10 | CC1(C)C=Cc2cc(C=O)ccc2O1 | 93.8 | 62.5 | 51.3 | 98.8 | 98.8 | 81.3 | 98.8 |  |  |  |  |  | 
11 | CC1(C)C=Cc2cc(CCO)ccc2O1 | 56.3 | 10 | 0 | 71.3 | 70 | 33.8 | 73.8 |  |  |  |  |  | 
12 | COC(=O)c1cccc2c1C=CC(C)(C)O2 | 100 | 87.5 | 0 | 100 | 100 | 97.5 | 100 |  |  |  |  |  | 
13 | CC(C)CC(=O)N(C)CCC1=CC2C=CC(C)(C)OC2C=C1 (configuration not stated) | 32.5 | 32.5 | 6.3 | 32.5 | 32.5 | 32.5 | 32.5 |  |  |  |  |  | 
14 | CC1(C)C=Cc2cc(CO)ccc2O1 [EULATACHROMENE] | 100 | 40 | 1.3 | 100 | 100 | 92.5 | 100 |  |  |  |  |  | 
15 | CNCCc1ccc2c(c1)C=CC(C)(C)O2.Cl | 1.3 | 0 | 0 | 2.5 | 2.5 | 0 | 3.8 |  |  |  |  |  | 
16 | CC1(C)C=Cc2cc3c(cc2O1)OCO3 [6,6-DIMETHYL-6H-[1,3]DIOXOLO[4,5-G]CHROMENE] |  |  | 0 |  | 75 |  |  | 12.5 |  | 82.5 | 23.8 | 2.5 | 85
17 | COC(=O)Cc1ccc2c(c1)C=CC(C)(C)O2 | 100 | 82.5 | 12.5 | 100 | 100 | 92.5 | 100 |  |  |  |  |  | 

— ChEMBL document CHEMBL3045559, “Natural-product-based chromenes as a novel class of potential termiticides” (2011)
